The values that follow come from patent publication US9394284B2, “Compounds act at multiple prostaglandin receptors giving a general anti-inflammatory response” (Allergan, Inc., priority 2010, dated 2016).

Holding throughout (format): cell-based
Experiment [1] addresses T1, human prostanoid FP receptor (Homo sapiens, UniProt P43088).
T1 construct: expressed in transfected cells
Description: FLIPR Ca2+ signaling antagonist assay, FP receptor stable cell line. The settings on record: HEK-293 EBNA stable cell line; standard agonist 17-phenyl-PGF2α; NA = inactive (no antagonism or Kb 10,000 nM); PAg, Ag not defined. The method, boiled down: (§1)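 Peak Fluo-4 fluorescence (ex 470–495, em 515–575 nm) was read for 3.5 min on FLIPR after agonist injection and expressed relative to 10^−6 M standard agonist. Cells were HEK-293 EBNA transfectants. Test compound was added 4.5 min beforehand at 0.1–30 μM, or 0.067–1 μM for TP.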

Experiment [2] addresses T2, human prostanoid DP1 receptor (Homo sapiens, UniProt Q13258).
T2 construct: expressed in transfected cells
T2 sequence (Q13258 1-359): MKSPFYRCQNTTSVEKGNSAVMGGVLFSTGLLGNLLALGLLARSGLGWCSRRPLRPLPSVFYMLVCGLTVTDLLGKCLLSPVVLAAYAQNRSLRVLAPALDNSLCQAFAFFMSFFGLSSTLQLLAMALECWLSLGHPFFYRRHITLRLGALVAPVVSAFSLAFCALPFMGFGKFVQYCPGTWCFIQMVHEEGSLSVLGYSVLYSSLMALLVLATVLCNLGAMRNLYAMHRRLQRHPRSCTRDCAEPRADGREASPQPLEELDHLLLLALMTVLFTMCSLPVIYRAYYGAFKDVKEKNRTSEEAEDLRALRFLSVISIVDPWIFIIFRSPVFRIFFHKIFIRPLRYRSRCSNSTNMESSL
Description: FLIPR Ca2+ signaling antagonist assay, DP1 receptor stable cell line. Particulars: HEK-293 EBNA stable cell line; standard agonist BW 245C; NA = inactive (no antagonism or Kb 10,000 nM); PAg, Ag not defined. A digest of the protocol: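 HEK-293 EBNA cells stably expressed the receptor: DP1 with chimeric Gqs, EP3 with Gqi, and EP1 and TP without exogenous G protein. Fluo-4AM-loaded cells were preincubated 4.5 min at 37 °C with antagonist (0.1–30 μM; TP 0.067–1 μM) before agonist serial dilutions. Peak FLIPR fluorescence was normalised to the 10^−6 M agonist control.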

Experiment [3] addresses T3, human prostanoid EP1 receptor (Homo sapiens, UniProt P34995).
T3 construct: expressed in transfected cells
T3 sequence (P34995 1-402): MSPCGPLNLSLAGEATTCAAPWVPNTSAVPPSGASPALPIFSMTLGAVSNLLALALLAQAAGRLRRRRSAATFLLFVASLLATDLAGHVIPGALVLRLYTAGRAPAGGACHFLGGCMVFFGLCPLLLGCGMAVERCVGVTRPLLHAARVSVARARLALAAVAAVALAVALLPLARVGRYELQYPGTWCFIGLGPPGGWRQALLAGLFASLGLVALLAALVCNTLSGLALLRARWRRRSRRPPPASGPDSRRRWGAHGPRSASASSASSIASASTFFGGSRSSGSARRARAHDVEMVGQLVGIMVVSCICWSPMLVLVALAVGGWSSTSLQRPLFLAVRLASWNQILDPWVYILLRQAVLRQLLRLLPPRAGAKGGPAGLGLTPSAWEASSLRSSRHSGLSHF
Description: FLIPR Ca2+ signaling antagonist assay, EP1 receptor stable cell line. Particulars: HEK-293 EBNA stable cell line; standard agonist PGE2; NA = inactive (no antagonism or Kb 10,000 nM); PAg, Ag not defined. A digest of the protocol:
as §1

The target in experiment [4] is T4, human prostanoid EP2 receptor (Homo sapiens, UniProt P43116).
T4 construct: expressed in transfected cells
Description: FLIPR Ca2+ signaling antagonist assay, EP2 receptor stable cell line. The settings on record: HEK-293 EBNA stable cell line; standard agonist PGE2; NA = inactive (no antagonism or Kb 10,000 nM); PAg, Ag not defined. The method, then:
(§2) The above compounds were tested for PG antagonist activity as follows using human recombinant prostanoid receptor (DP1, EP1-4, FP, IP and TP) stable cell lines:
(§3) In order to measure the response of Gs and Gi coupled prostanoid receptors as a Ca^2+ signal, chimeric G protein cDNAs were used. Stable cell lines over-expressing human prostanoid DP1, EP1-4, FP, IP, and TP receptors were established as follows:
(§4) Briefly, human prostanoid DP1, EP2, and EP4 receptor cDNAs were co-transfected with chimeric Gqs cDNA containing a haemagglutanin (HA) epitope; human prostanoid EP3 receptors were co-transfected with chimeric Gqi-HA; human EP1, FP, IP, and TP receptor cDNAs were expressed with no exogenous G-proteins. Gqs and Gqi chimeric cDNAs (Molecular Devices, Sunnyvale, Calif., U.S.A.), as well as cDNAs of prostanoid receptors, were cloned into a pCEP4 vector with a hygromycin B selection marker. Transfection into HEK-293 EBNA (Epstein-Barr virus nuclear antigen) cells was achieved by the FuGENE 6 transfection Reagent (Roche Applied Science, Indianapolis, Ind., USA). Stable transfectants were selected according to hygromycin resistance. Because Gqs and Gqi contained an HA epitope, G-protein expression was detected by Western blotting analysis using anti-mouse HA monoclonal antibody and horseradish peroxidase (HRP)-conjugated secondary antibody, while functional expression of prostanoid receptors was detected by FLIPR screening (Matias et al., 2004). These stable cell lines were validated using previously published antagonists at 10 μM against serial dilutions of standard agonists by FLIPR functional assays for Ca^2+ Signaling (as described below).
(§5) Ca^2+ signaling studies were performed using a FLIPR TETRA system (Molecular Devices, Sunnyvale, Calif., USA) in the 384-format. This is a high-throughput instrument for cell-based assays to monitor Ca^2+ signaling associated with GPCRs and ion channels. Cells were seeded at a density of 5×10^4 cells/well in BioCoat poly-D-lysine coated, black wall, clear bottom 384-well plates (BD Biosciences, Franklin lakes, NJ, USA) and allowed to attach overnight in an incubator at 37° C. The cells were then washed twice with HBSS-HEPES buffer (Hanks' balanced salt solution without bicarbonate and phenol red, 20 mM HEPES, pH 7.4) using an ELx405 Select CW Microplate Washer (BioTek, Winooski, Vt., USA). After 60 min of dye-loading in the dark using the Ca^2+-sensitive dye Fluo-4AM (Invitrogen, Carlsbad, Calif., USA), at a final concentration of 2×10^−6M, the plates were washed 4 times with HBSS-HEPES buffer to remove excess dye and leaving 50 μl of buffer in each well. The plates were then placed in the FLIPR TETRA instrument and allowed to equilibrate at 37° C. AGN-211377 was added in a 25 μl volume to each well to give final concentrations of 0.1 μM, 0.3 μM, 1 μM, 3 μM, 10 μM, and 30 μM; or 0.067 μM, 0.1 μM, 0.2 μM, 0.3 μM, 0.67 μM, and 1 μM for cells over-expressing TP receptors. After 4.5 minutes, a 7-point serial dilution of the standard agonist for the corresponding receptor, in a 25 μl volume was injected at the final concentrations from 10^−11M to 10^−5M in 10-fold serial dilution increments for cells expressing human recombinant DP1, EP1, EP2, EP3, EP4, FP, and IP receptors. The dose range for the standard agonist for human recombinant TP receptors was from 10^−12 M to 10^−6 M. HBSS-HEPES buffer was used as the negative control for the standard agonists. Cells were excited with LED (light emitting diode) excitation at 470-495 nm and emission was measured through an emission filter at 515-575 nm. Assay plates were read for 3.5 minutes using the FLIPR^TETRA. The peak increase in fluorescence intensity was recorded for each well. On each plate, negative controls, dose response of positive controls, and co-treatments of antagonist-agonist for each dose were in triplicates.
(§6) Standard agonists were as follows: DP=BW 245C, EP1-EP4=PGE2, FP=17-phenyl-PGF2α, IP=Cicaprost, and TP=U-46619. […]

Experiment [5] deals with T5, human prostanoid EP4 receptor (Homo sapiens, UniProt P35408).
T5 construct: expressed in transfected cells
Description: FLIPR Ca2+ signaling antagonist assay, EP4 receptor stable cell line. The settings on record: HEK-293 EBNA stable cell line; standard agonist PGE2; NA = inactive (no antagonism or Kb 10,000 nM); PAg, Ag not defined. A digest of the protocol: as §1

The target in experiment [6] is T6, human prostanoid IP receptor (Homo sapiens, UniProt P43119).
T6 construct: expressed in transfected cells
Description: FLIPR Ca2+ signaling antagonist assay, IP receptor stable cell line. Particulars: HEK-293 EBNA stable cell line; standard agonist Cicaprost; NA = inactive (no antagonism or Kb 10,000 nM); PAg, Ag not defined. The protocol:
as §2, §3, §4, §5, §6

Experiment [7] has as its target T7, human prostanoid TP receptor (Homo sapiens, UniProt P21731).
T7 construct: expressed in transfected cells
T7 sequence (P21731 1-343): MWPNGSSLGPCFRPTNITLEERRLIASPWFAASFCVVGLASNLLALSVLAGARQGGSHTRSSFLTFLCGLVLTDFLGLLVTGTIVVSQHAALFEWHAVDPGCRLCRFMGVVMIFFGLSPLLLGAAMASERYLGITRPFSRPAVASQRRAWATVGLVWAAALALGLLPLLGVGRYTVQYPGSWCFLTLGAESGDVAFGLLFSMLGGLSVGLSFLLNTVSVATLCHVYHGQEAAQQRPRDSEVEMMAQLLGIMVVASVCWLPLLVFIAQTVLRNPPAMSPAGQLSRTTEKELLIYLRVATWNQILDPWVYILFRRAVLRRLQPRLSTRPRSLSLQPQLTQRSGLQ
Description: FLIPR Ca2+ signaling antagonist assay, TP receptor stable cell line. The settings on record: HEK-293 EBNA stable cell line; standard agonist U-46619; NA = inactive (no antagonism or Kb 10,000 nM); PAg, Ag not defined. The method, boiled down:
as §1

T4 sequence (P43116 whole entry): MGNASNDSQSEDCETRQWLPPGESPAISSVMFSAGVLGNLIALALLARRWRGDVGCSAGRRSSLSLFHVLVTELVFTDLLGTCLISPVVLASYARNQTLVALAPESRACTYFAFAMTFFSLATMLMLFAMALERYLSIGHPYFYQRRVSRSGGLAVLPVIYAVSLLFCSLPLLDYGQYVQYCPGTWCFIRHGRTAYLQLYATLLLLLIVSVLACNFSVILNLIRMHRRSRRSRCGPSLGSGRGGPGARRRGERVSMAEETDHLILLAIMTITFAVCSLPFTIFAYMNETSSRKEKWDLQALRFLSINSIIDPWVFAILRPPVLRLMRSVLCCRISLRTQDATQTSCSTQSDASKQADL
T1 sequence (P43088 whole entry): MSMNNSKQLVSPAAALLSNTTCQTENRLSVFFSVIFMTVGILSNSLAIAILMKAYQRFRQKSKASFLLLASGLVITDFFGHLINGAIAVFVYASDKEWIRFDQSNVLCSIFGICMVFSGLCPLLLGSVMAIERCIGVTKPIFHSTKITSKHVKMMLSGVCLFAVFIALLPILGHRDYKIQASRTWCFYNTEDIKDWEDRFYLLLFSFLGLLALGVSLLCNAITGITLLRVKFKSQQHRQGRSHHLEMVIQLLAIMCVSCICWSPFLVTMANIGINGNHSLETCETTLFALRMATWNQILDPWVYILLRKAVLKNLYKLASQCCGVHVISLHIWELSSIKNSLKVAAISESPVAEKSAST
T6 sequence (P43119 whole entry): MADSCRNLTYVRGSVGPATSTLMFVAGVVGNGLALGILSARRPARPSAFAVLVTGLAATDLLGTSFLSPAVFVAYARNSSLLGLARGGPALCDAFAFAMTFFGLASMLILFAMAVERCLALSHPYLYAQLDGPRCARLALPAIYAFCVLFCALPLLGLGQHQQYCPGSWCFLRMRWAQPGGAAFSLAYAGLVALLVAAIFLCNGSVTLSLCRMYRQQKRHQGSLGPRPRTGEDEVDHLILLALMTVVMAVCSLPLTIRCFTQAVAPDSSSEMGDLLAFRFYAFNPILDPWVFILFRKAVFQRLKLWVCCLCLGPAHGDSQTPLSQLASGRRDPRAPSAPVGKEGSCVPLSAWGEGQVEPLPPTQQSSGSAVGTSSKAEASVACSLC
T5 sequence (P35408 whole entry): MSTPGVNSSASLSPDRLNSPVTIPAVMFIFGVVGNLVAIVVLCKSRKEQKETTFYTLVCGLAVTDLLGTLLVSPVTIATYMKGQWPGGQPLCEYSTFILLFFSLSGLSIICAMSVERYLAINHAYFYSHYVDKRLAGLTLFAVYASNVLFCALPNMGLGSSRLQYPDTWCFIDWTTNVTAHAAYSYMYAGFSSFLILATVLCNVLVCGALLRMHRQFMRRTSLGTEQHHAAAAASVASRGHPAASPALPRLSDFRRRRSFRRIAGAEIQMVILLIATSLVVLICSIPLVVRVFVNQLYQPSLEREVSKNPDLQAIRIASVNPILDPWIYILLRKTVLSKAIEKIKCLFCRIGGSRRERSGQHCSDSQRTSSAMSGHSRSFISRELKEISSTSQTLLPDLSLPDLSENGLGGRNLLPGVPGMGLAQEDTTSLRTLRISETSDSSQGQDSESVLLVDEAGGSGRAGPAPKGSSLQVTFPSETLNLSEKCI

For `Cc1cc(CCC(=O)O)nn1Cc1cc(Br)ccc1OCC1CCC1` [Example 12, 3-[1-(5-Bromo-2-(2-cyclobutylmethoxy)-benzyl)-5-methyl-1H-pyrazol-3-yl]-propionic acid], the Kb turned out to be 30 nM in experiment [1]; 110 nM in experiment [2]; 30 nM in experiment [3]; 1700 nM in experiment [4]; 500 nM in experiment [5]; 3600 nM in experiment [6]. Besides, in experiment [7], the Kb is 30 nM.

`Cc1cc(CCC(=O)O)nn1Cc1cc(Br)ccc1OCC(C)C` [Example 16, 3-[1-(5-Bromo-2-isobutoxybenzyl)-5-methyl-1H-pyrazol-3-yl]-propionic acid]: the Kb stood at 70 nM in experiment [1]; 200 nM in experiment [2]; 14 nM in experiment [3]; 2700 nM in experiment [4]; 1000 nM in experiment [5]; 14 nM in experiment [7].

Take `Cc1cc(CCC(=O)O)nn1Cc1cc(Cl)ccc1OCCC(C)C` [Example 21, 3-[1-(5-Chloro-2-(3-methylbutoxy)benzyl)-5-methyl-1H-pyrazol-3-yl]-propionic acid]: the Kb in experiment [1] was 225 nM; in experiment [3], 350 nM; in experiment [4] it was 8200 nM; in experiment [5] it was 1000 nM; in experiment [6], 5530 nM; in experiment [7] it was 30 nM. For the same compound, in experiment [2], the “DP1 (FLIPR) Kb” value was “PAg”.

On to `Cc1cc(CCC(=O)O)nn1Cc1cc(Cl)ccc1OC(CC(C)C)CC(C)C` [Example 23, 3-[1-(5-Chloro-2-(1-isobutyl-3-methylbutoxy)benzyl)-5-methyl-1H-pyrazol-3-yl]-propionic acid], for which the Kb in experiment [2] stood at 160 nM; in experiment [3], 1500 nM. In experiment [4], the “EP2 (FLIPR) Kb” value is reported as “PAg”. In addition, in experiment [5], the “EP4 (FLIPR) Kb” value is “Ag”. The “IP (FLIPR) Kb” value in experiment [6] is reported as “Ag”. Besides, the “TP (FLIPR) Kb” value in experiment [7] is on record as “Ag”.

As for `Cc1cc(CCC(=O)O)nn1Cc1cc(Cl)ccc1OCc1ccc(Cl)cc1C(F)(F)F` [Example 29, 3-[1-(5-Chloro-2-(4-chloro-2-trifluoromethylbenzyloxy)benzyl)-5-methyl-1H-pyrazol-3-yl]-propionic acid], the Kb in experiment [1] amounted to 5900 nM; in experiment [2], 790 nM; in experiment [3], 70 nM; in experiment [4] it was 9800 nM. For the same compound, the “IP (FLIPR) Kb” value in experiment [6] is “PAg”. Moreover, the “TP (FLIPR) Kb” value in experiment [7] is on record as “Ag”.

In the case of `Cc1cc(CCC(=O)O)nn1Cc1cc(Cl)ccc1OCC(C)C` [Example 42, 3-[1-(5-Chloro-2-(2-methylpropyloxy)benzyl)-5-methyl-1H-pyrazol-3-yl]-propionic acid], the Kb in experiment [1] worked out at 180 nM; in experiment [2], 260 nM; in experiment [3] it was 30 nM; in experiment [4], 2500 nM; in experiment [5], 1600 nM; in experiment [7], 40 nM.

`Cc1cc(CCC(=O)O)nn1Cc1cc(Cl)ccc1CCC1CCCC1` [Example 74]: the Kb worked out at 3500 nM in experiment [1]; 600 nM in experiment [2]; 1300 nM in experiment [3]; 3300 nM in experiment [5]; 2200 nM in experiment [6]; 190 nM in experiment [7].

Regarding `Cc1cc(CCC(=O)O)nn1Cc1cc(Cl)ccc1C#CCC(C)C` [Example 76, 3-{1-[5-Chloro-2-(4-methylpentynyl)-benzyl]-5-methyl-1H-pyrazol-3-yl}-propionic acid], the Kb in experiment [1] was determined as 160 nM; in experiment [3] it was 200 nM; in experiment [5], 1200 nM; in experiment [6], 4500 nM; in experiment [7] it was 7 nM. Moreover, the “DP1 (FLIPR) Kb” value in experiment [2] is “PAg”.

The Kb is the equilibrium dissociation constant of an antagonist, usually derived from a functional assay.
